Measured values published in patent US8628767B2, “Purine nucleoside phosphorylase as enzymatic activator of nucleoside prodrugs” (priority 2008, dated 2014).

What was measured:
E. coli PNP = E. coli PNP (Escherichia coli, UniProt P0ABP8); test: Substrate cleavage by wild-type E. coli PNP (HPLC); format: biochemical; details: 100 micromolar substrate, HPLC separation of base from nucleoside
Method: (§1) The method quantitatively measures the cleavage of substrates in vitro. The purine analog nucleosides (0.1 mM in 500 μl of 100 mM HEPES, pH 7.4, 50 mM potassium phosphate) are combined with 100 μg/ml Tv-PNP or wild-type E. coli PNP. The reaction mixtures are incubated at 25° C. for 1 hour, and the reactions stopped by boiling each sample for 2 minutes. Protein concentration and time of assay are varied depending on activity of enzyme for a particular substrate. Each sample is analyzed by reverse phase HPLC to measure conversion from substrate to product. The nucleoside and purine analogs are eluted from a Spherisorb ODSI (5 μm) column (Keystone Scientific, Inc., State College, Pa.) with a solvent containing 50 mM ammonium dihydrogen phosphate (95%) and acetonitrile (5%). Products are detected by absorbance at 254 nm, and are identified by comparing their retention times and absorption spectra with authentic control samples.
Numerous compounds are tested for efficiency as substrate for Tv-PNP in parallel comparison with E. coli PNP. […] The enzymes are incubated with 100 micromolar of each compound listed in the table and the rate of enzymatic cleavage is determined by HPLC separation of the base from the nucleoside.

T. vaginalis PNP [1] = test: Substrate cleavage by wild-type Tv-PNP (HPLC); format: biochemical, Trichomonas vaginalis; details: for rate of enzymatic cleavage by T. vaginalis PNP: 100 micromolar substrate, HPLC separation of base from nucleoside
Method: as §1
Numerous compounds are tested for efficiency as substrate for Tv-PNP in parallel comparison with E. coli PNP. The compounds include various analogs of adenosine, of inosine, of MeP-dR, and of fluoro- or chloro-substituted adenosine. The enzymes are incubated with 100 micromolar of each compound listed in the table and the rate of enzymatic cleavage is determined by HPLC separation of the base from the nucleoside. […] It is appreciated that the greater biological activity of the Tv-PNP enzyme allows for greater activity in impairing abnormal cell growth when the Tv-PNP is used for treatment of pathological conditions using F-araA as a prodrug substrate.

[2] = Tolerated dose of MeP-dR in mice; format: in vivo
Text: The formula of Freidenreich et al., Cancer Chemother. Rep., 50:219-244, (1966) is optionally used to determine the maximum tolerated dose of substrate for a human subject. […] This amount or slightly less is expected to maximize tumor cell killing in humans without killing the subject thereby generating a favorable efficacy to safety profile. This standard of effectiveness is accepted in the field of cancer therapy. More preferably, a drug levels administered range from about 10% to 1% of the maximum tolerated dosage (for example, 7.5 mg/m^2-0.75 mg/m^2). It is understood that modes of administration that permit the substrate to remain localized at or near the site of the tumor will be effective at lower doses than systemically administered substrates.

T. vaginalis PNP [3] = details: Wang et al.; cited from earlier work
[4] = system: tumor expressing wild-type E. coli PNP enzyme; details: cited from earlier work
[5] = Cleavage of F-araA by PNPs of various origins (HPLC); format: biochemical
[6] = Cleavage of MeP-dR by PNPs of various origins (HPLC); format: biochemical; details: 100 μM MeP-dR, enzymes of various purities
tumors = test: In vivo efficacy experiments, tm-PNP versus M65V

Chain of E. coli PNP (P0ABP8 whole entry): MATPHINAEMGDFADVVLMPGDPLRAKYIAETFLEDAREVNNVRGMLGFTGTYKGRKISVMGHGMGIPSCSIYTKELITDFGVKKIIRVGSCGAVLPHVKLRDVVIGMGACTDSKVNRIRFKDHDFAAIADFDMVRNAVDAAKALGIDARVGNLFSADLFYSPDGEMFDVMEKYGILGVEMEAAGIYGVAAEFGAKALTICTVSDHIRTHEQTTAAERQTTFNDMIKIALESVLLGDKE

Molecule | rate of enzymatic cleavage by E. coli PNP (E. coli PNP) | rate of enzymatic cleavage by T. vaginalis PNP (T. vaginalis PNP [1]) | toxicity ([2]; mice, systemic, 25 mg per kg per day for 9 days (9 doses total)) | human dosage (maximum tolerated dose) by formula of Freidenreich et al. ([2]; mouse, in vivo, 25 mg/kg) [mg/m^2] | activity of Tv-PNP towards substrate, conventional understanding (T. vaginalis PNP [3]) | cleavage rate by Tv-PNP relative to E. coli PNP (T. vaginalis PNP [1]; Tv-PNP rate / E. coli PNP rate) | catalytic efficiency of Tv-PNP relative to E. coli PNP (T. vaginalis PNP [1]; Vmax/Km ratio) [fold] | activity of Tv-PNP as compared to wild-type E. coli PNP (T. vaginalis PNP [1]; summary of Table 1) | tumor response [4] | MeP-dR/F-araA cleavage ratio [5] | F-araA rate of cleavage ([5]; 100 μM F-araA, enzymes of various purities) [nmol/mg/h] | selectivity of cleavage of F-araA relative to wild-type E. coli PNP ([5]; from MeP-dR/F-araA ratios 198 vs 422) [fold] | MeP-dR rate of cleavage [6] [nmol/mg/h] | antitumoral activity relative to M65V (tumors)
Cc1ncnc2c1ncn2[C@H]1C[C@H](O)[C@@H](CO)O1 [9-(2-deoxy-β-D-ribofuranosyl]-6-methylpurine] | 528,000 nanomoles per milligrams per hour | 484,000 nanomoles per milligrams per hour | some toxicity but no lethality | 75 |  |  |  |  |  |  |  |  |  | 
Nc1nc(F)nc2c1ncn2[C@@H]1O[C@H](CO)[C@@H](O)[C@@H]1O [9-(β-D-arabinofuranosyl)-2-fluoroadenine, reference compound] | 1,250 nanomoles per milligrams per hour | 32,000 nanomoles per milligrams per hour |  |  | does not have appreciable activity | approximately 23 times | 25 | more activity | complete responses |  |  |  |  | 
tm-PNP: tailed mutant E. coli PNP, 30 amino acid tail in place of the terminal glutamic acid (SEQ ID NO: 8) (protein, listed as Trichomonas vaginalis) MATPHINAEMGDFADVVLMPGDPLRAKYIAETFLEDAREVNNVRGMLGFTGTYKGRKISVMGHGMGIPSCSIYTKELITDFGVKKIIRVGSCGAVLPHVKLRDVVIGMGACTDSKVNRIRFKDHDFAAIADFDMVRNAVDAAKALGIDARVGNLFSADLFYSPDGEMFDVMEKYGILGVEMEAAGIYGVAAEFGAKALTICTVSDHIRTHEQTTAAERQTTFNDMIKIALESVLLGDKGKRPRGSSRVDLQACKLGIFVKEPYFCGVT |  |  |  |  |  |  |  |  |  | 198 | 4.8 | 2.3 | 948 | considerably greater antitumoral activity
